Test results taken from patent US12509474B2, “Inhibitors of complement factors and uses thereof” (Annexon, Inc., priority 2020, dated 2025).
Counter-ions that a name gives are not always drawn.

biological target: T1, human C1s protein (Homo sapiens, UniProt P09871); test: C1s enzymatic assay (hydrolysis of YLGR-Rh110-dPro); assay type: biochemical; conditions: substrate YLGR-Rh110-dPro 20 μM, 15 min pre-incubation, 60 min RT, fluorescence
T1 construct: A104
T1 sequence (P09871 16-688): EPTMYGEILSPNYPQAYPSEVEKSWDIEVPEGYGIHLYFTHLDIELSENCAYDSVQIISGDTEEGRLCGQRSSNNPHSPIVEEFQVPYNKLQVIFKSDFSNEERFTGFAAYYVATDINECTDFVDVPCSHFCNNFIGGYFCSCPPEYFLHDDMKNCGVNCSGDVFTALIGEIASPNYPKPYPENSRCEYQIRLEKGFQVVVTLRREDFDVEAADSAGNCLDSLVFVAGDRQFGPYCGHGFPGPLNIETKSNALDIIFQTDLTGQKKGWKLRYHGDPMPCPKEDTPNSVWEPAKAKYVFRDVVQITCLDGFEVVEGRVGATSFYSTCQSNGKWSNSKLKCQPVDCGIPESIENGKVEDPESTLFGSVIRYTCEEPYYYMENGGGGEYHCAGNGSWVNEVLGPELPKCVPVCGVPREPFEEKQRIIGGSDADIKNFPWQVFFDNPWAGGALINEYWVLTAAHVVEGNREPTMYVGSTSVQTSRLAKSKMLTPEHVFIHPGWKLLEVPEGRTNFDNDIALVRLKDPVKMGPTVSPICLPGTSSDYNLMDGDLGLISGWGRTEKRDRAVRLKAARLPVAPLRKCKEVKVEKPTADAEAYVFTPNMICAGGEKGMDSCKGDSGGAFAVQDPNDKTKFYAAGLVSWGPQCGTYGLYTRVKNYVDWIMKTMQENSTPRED
Protocol: Compound Testing in the C1s Enzymatic Assay
The enzyme cleaves the substrate with the release of Rh110 which is highly fluorescent. C1s inhibitors prevent the hydrolysis of the substrate thus resulting in a decrease of the signal.
On the day of the experiment 0.1 mg/mL BSA (Sigma, B4287) is added fresh to the buffer. The test item stock solutions are serially diluted 1:3 or 1:4 or 1:5 with DMSO, 11-point curves, in a 384-well compound plate. Nafamostat concentration curve is always included in the assay plate as a reference control.
The high controls are prepared dispensing in 0.25 μL DMSO in column 23, rows AH or AP and low controls with 0.25 μL of 0.1 M Nafamostat. […] The YLGR-Rh110-dPro substrate is prepared as 2× of the final assay concentration of 20 μM. 1/well of 2× enzyme solution is dispensed and pre-incubated for 15 min with the compounds. The enzymatic reaction is then started with 5 μL/well of the 2× substrate solution.

Compound | hC1s pIC50
7-(3-cyclopropyl-1-hydroxy-3,4-dihydro-2,1-benzoxazonin-7-yl)cinnolin-4-amine [Example 147] | 8.38

same assay, conditions: substrate YLGR-Rh110-dPro 20 μM, 15 min pre-incubation, 60 min RT, fluorescence, read-out: hC1s pIC50 (converted)

IC50 [nM] | Compound
1 | COc1cc(C2CC2)c(B(O)O)cc1-c1ccc2c(N)nnc(C)c2c1 [Example 43, [5-(1-amino-4-methylphthalazin-6-yl)-2-cyclopropyl-4-methoxyphenyl]boronic Acid]
1.66 | CC(C)C1Cc2ccc(-c3ccc4c(N)cnnc4c3)cc2B(O)O1 (single isomer, unassigned) [Example 153]
0.891 | COc1ccc(B(O)O)cc1-c1ccc2c(N)nnc(C)c2c1 [Example 7, [3-(1-amino-4-methylphthalazin-6-yl)-4-methoxyphenyl]boronic Acid Formic Acid Salt]
1.02 | COc1ccc(B(O)O)c(F)c1-c1ccc2c(N)nnc(C)c2c1 [Example 34, [3-(1-amino-4-methylphthalazin-6-yl)-2-fluoro-4-methoxyphenyl]boronic Acid Formic Acid Salt]
3.24 | Cc1nc2c(-c3ccc4c(N)nnc(C)c4c3)cc(B(O)O)cc2o1 [Example 125, [4-(1-amino-4-methylphthalazin-6-yl)-2-methyl-1,3-benzoxazol-6-yl]boronic Acid Formic Acid Salt]
2.82 | COCc1cc(OC)c(-c2ccc3c(N)cnnc3c2)cc1B(O)O [Example 137, [5-(4-aminocinnolin-7-yl)-4-methoxy-2-(methoxymethyl)phenyl]boronic Acid Formic Acid Salt]
2.24 | COc1cc(C#N)c(B(O)O)cc1-c1ccc2c(N)nnc(C)c2c1 [Example 116, [5-(1-amino-4-methylphthalazin-6-yl)-2-cyano-4-methoxyphenyl]boronic Acid]
0.661 | Nc1cnnc2cc(-c3cc(B(O)O)ccc3OCCC3CCCO3)ccc12 (centres unmarked) [Example 110, [3-(4-aminocinnolin-7-yl)-4-[2-(oxolan-2-yl)ethoxy]phenyl]boronic Acid]
> 25100 | COc1ccc(B(O)O)cc1-c1ccc2c(O)cnnc2c1 [Example 158, [3-(4-hydroxycinnolin-7-yl)-4-methoxyphenyl]boronic Acid]
3.8 | Cc1nnc(N)c2ccc(-c3ccc(NC(=O)c4ccccc4)c(B(O)O)c3)cc12 [Example 70, [5-(1-amino-4-methylphthalazin-6-yl)-2-benzamidophenyl]boronic Acid]
1.26 | O=CO.[2H]C([2H])([2H])Oc1ccc(B(O)O)cc1-c1ccc2c(N)cnnc2c1 [Example 159, [3-(4-aminocinnolin-7-yl)-4-(^2H3)methoxyphenyl]boronic Acid Formic Acid Salt]
14.1 | Cc1nnc(N)c2ccc(-c3ccc4c(c3)B(O)OC4)cc12 [Example 14, 6-(1-hydroxy-3H-2,1-benzoxaborol-6-yl)-4-methylphthalazin-1-amine Formic Acid Salt]
1.78 | COc1cc(C)c(B(O)O)cc1-c1ccc2c(N)nnc(C)c2c1 [Example 28, [5-(1-amino-4-methylphthalazin-6-yl)-4-methoxy-2-methylphenyl]boronic Acid Formic Acid Salt]
363 | Cc1nnc(N)c2ccc(-n3cc(B(O)O)cn3)cc12 [Example 23, [1-(1-amino-4-methylphthalazin-6-yl)pyrazol-4-yl]boronic Acid]
1.74 | Cc1nnc(N)c2ccc(-c3cncc(B(O)O)c3)cc12 [Example 17, [5-(1-amino-4-methylphthalazin-6-yl)pyridin-3-yl]boronic Acid]
6920 | COc1ccc(B(O)O)cc1-c1ccc2nccc(N)c2c1 [Example 129, [3-(4-aminoquinolin-6-yl)-4-methoxyphenyl]boronic Acid Formic Acid Salt]
8.13 | CCc1ccc(B(O)O)cc1-c1ccc2c(N)nnc(C)c2c1 [Example 12, [3-(1-amino-4-methylphthalazin-6-yl)-4-ethylphenyl]boronic Acid Formic Acid Salt]
0.891 | COc1cc(Cl)c(B(O)O)cc1-c1ccc2c(N)nnc(C)c2c1 [Example 50, [5-(1-amino-4-methylphthalazin-6-yl)-2-chloro-4-methoxyphenyl]boronic Acid]
1.02 | Nc1cnnc2cc(-c3cc(B(O)O)ccc3OC(F)C(F)(F)F)ccc12 (centres unmarked) [Example 106, [3-(4-aminocinnolin-7-yl)-4-(1,2,2,2-tetrafluoroethoxy)phenyl]boronic Acid]

IC50 [nM] | Compound
269 | COc1ccc(B(O)O)cc1-c1ccc2c(N)nc(C)cc2c1 [Example 22, [3-(1-amino-3-methylisoquinolin-6-yl)-4-methoxyphenyl]boronic Acid]
5.75 | Nc1cnnc2cc(-c3ccc(C(F)(F)F)c(B(O)O)c3)ccc12 [Example 88, [5-(4-aminocinnolin-7-yl)-2-(trifluoromethyl)phenyl]boronic Acid]
214 | Nc1nnc(C2CC2)c2cc(-c3cccc(B(O)O)c3)ccc12 [Example 11, [3-(1-amino-4-cyclopropylphthalazin-6-yl)phenyl]boronic Acid Formic Acid Salt]
1.12 | Nc1cnnc2cc(-c3cc(B(O)O)ccc3OC(F)(F)C(F)F)ccc12 [Example 105, [3-(4-aminocinnolin-7-yl)-4-(1,1,2,2-tetrafluoroethoxy)phenyl]boronic Acid]
1.7 | COc1cc(F)c(B(O)O)cc1-c1ccc2c(N)nnc(C)c2c1 [Example 25, [5-(1-amino-4-methylphthalazin-6-yl)-2-fluoro-4-methoxyphenyl]boronic Acid]
0.871 | Nc1cnnc2cc(-c3cc(B(O)O)ccc3OCc3cnsc3)ccc12 [Example 98, [3-(4-aminocinnolin-7-yl)-4-[(1,2-thiazol-4-yl)methoxy]phenyl]boronic Acid]
0.724 | Nc1cnnc2cc(-c3cc(B(O)O)ccc3OC3CCOCC3)ccc12 [Example 51, [3-(4-aminocinnolin-7-yl)-4-(oxan-4-yloxy)phenyl]boronic Acid Formic Acid Salt]
17.4 | COc1ccc(B(O)O)cc1-c1ccc2c(N)ncc(C)c2c1 [Example 111, [3-(1-amino-4-methylisoquinolin-6-yl)-4-methoxyphenyl]boronic Acid]
129 | Cc1nnc(N)c2ccc(-c3c(C(F)(F)F)ccc(B(O)O)c3F)cc12 [Example 68, [3-(1-amino-4-methylphthalazin-6-yl)-2-fluoro-4-(trifluoromethyl)phenyl]boronic Acid]
4.57 | Cc1nnc(N)c2ccc(-c3cc(B(O)O)ccc3NC(=O)C3CC(F)(F)CN3)cc12 (stereo in doubt) [Example 81, [3-(1-amino-4-methylphthalazin-6-yl)-4-[[(2S)-4,4-difluoropyrrolidine-2-carbonyl]amino]phenyl]boronic Acid]
6.92 | Cc1ccc(B(O)O)cc1-c1ccc2c(N)nnc(C)c2c1 [Example 10, [3-(1-amino-4-methylphthalazin-6-yl)-4-methylphenyl]boronic Acid Formic Acid Salt]
67.6 | COc1ccc(B(O)O)cc1-c1cnc2c(N)nccc2c1 [Example 130, [3-(8-amino-1,7-naphthyridin-3-yl)-4-methoxyphenyl]boronic Acid Formic Acid Salt]
3.09 | CC(C)C1Cc2ccc(-c3ccc4c(N)cnnc4c3)cc2B(O)O1 (single isomer, unassigned) [Example 152]
0.794 | Nc1cnnc2cc(-c3cc(B(O)O)ccc3OCCC3CC3)ccc12 [Example 115, [3-(4-aminocinnolin-7-yl)-4-(2-cyclopropylethoxy)phenyl]boronic Acid]
3.09 | Nc1cnnc2cc(-c3cc(B(O)O)cc4c3OCCC4)ccc12 [Example 145, [8-(4-aminocinnolin-7-yl)-3,4-dihydro-2H-chromen-6-yl]boronic Acid Formic Acid Salt]
0.562 | COc1c(C)cc(-c2ccc3c(N)nnc(C)c3c2)cc1B(O)O [Example 45, [5-(1-amino-4-methylphthalazin-6-yl)-2-methoxy-3-methylphenyl]boronic Acid]
7.41 | COc1cc2c(cc1-c1ccc3c(N)cnnc3c1)B(O)OCC2 [Example 46, 7-(1-hydroxy-6-methoxy-3,4-dihydro-2,1-benzoxazonin-7-yl)cinnolin-4-amine Trifluoroacetic Acid Salt]
> 25100 | COc1ccc(B(O)O)cc1-c1ccc2c(O)nncc2c1 [Example 160, [3-(1-hydroxyphthalazin-6-yl)-4-methoxyphenyl]boronic Acid]
